Target: F508del-CFTR (Homo sapiens, UniProt P13569, DEL508-508)
Test: HS-YFP kinetic fluorescence (iodide quenching rate) assay in CFBE41o− cells
Type: cell-based
Parameters: expressed in transfected cells; host or cells: CFBE41o- cells with expression of F508del-CFTR and HS-YFP (generated as in Sondo et al. 2011)
Settings: for AI (%) additivity index / AI additivity index: compound at 10 μM plus VX-809; for structure-activity comparison of corrector potency/activity: relative to the analogue
Experimental: CFBE41o- cells, with expression of F508del-CFTR and halogen-sensitive fluorescent protein, were generated as previously described (Sondo E, et al. Am J Physiol. 2011, 301, […]-[…]). For the test, the cells were seeded in 96-well microplates using a culture medium consisting of DMEM and Ham's F12 (1:1) supplemented with 10% foetal bovine serum. After 24 hours from seeding, the cells were treated for another 24 hours with the test compounds dissolved in the culture medium at the desired concentrations. As a negative control, the solvent of the compounds (dimethyl sulfoxide, DMSO) dissolved in the medium with the same dilution ratio (final percentage of DMSO:0.1-0.2%) was used. As a positive control, the corrector VX-809 (Selleck Chemicals, […]) was used at a concentration of 1 μM. After treatment, the medium with the compounds was removed and the cells were stimulated with forskolin (Sigma-Aldrich, F6886) 20 μM plus genistein (Sigma-Aldrich, G6649) 50 μM (in 60 μl of PBS saline) to maximally activate the CFTR channels present in the membrane. In a microplate reader (FLUOstar-Omega, BMG) the fluorescence of the cells in each well was read for 14 seconds, with an injection of 165 μl of a iodide-enriched saline (modified PBS where NaCl, 137 mM, has been replaced with the same concentration of NaI). The iodide transport activity in each well was evaluated by subtraction of the background fluorescence (measured in a well without cells), subsequent normalization with respect to the initial fluorescence and finally by interpolation of the fluorescence quenching phase with an exponential function that allows the derivation of the maximum slope (quenching rate, QR). The activity of the synthesized compounds was initially evaluated on the CFBE41o- cell line with expression of the mutated F508del-CFTR protein described above (Sondo E, et al. Am J Physiol. 2011, 301, […]-[…]). For this purpose, a functional assay based on the fluorescent YFP protein sensitive to halides, HS-YFP, was used (Galietta L J, et al. J Biol Chem. 2001, 276, 19723-19728). The fluorescence of the HS-YFP protein is turned off by iodide. Therefore, if exposed to a solution containing iodide, cells with HS-YFP expression show a quenching speed of the fluorescence which depends on the presence and activity of anionic channels. Under control conditions, the mutated CFTR protein presents a serious defect of stability and maturation, so it remains trapped in the endoplasmic reticulum not reaching the cell surface in enough quantity. In the HS-YFP-based assay, this defect results in a low anion transport capacity and therefore in a low quenching rate (QR). Treatment for a prolonged time (e.g. 24 hours) with a corrector determines an improvement in protein maturation with an increase in the number of CFTR channels present in the membrane and therefore an increase in the flux of iodide and QR. In a first phase, the authors screened about 200 heterocyclic molecules with various nitrogenated tricyclic scaffolds. Conditions previously described have been used for screening (Sondo E, et al. Am J Physiol. 2011, 301, […]-[…]) and reported herein in the Materials and Methods section. A threshold equal to the average value plus three times the standard deviation of the QR of wells without compounds (only DMSO in the culture medium) was used as a criterion for the selection of active compounds.

[1] = Table 1, (QRTOT − QRVX)/QRVX, HS-YFP assay

Chain of F508del-CFTR (P13569 with tags, fused parts or gaps DEL508-508): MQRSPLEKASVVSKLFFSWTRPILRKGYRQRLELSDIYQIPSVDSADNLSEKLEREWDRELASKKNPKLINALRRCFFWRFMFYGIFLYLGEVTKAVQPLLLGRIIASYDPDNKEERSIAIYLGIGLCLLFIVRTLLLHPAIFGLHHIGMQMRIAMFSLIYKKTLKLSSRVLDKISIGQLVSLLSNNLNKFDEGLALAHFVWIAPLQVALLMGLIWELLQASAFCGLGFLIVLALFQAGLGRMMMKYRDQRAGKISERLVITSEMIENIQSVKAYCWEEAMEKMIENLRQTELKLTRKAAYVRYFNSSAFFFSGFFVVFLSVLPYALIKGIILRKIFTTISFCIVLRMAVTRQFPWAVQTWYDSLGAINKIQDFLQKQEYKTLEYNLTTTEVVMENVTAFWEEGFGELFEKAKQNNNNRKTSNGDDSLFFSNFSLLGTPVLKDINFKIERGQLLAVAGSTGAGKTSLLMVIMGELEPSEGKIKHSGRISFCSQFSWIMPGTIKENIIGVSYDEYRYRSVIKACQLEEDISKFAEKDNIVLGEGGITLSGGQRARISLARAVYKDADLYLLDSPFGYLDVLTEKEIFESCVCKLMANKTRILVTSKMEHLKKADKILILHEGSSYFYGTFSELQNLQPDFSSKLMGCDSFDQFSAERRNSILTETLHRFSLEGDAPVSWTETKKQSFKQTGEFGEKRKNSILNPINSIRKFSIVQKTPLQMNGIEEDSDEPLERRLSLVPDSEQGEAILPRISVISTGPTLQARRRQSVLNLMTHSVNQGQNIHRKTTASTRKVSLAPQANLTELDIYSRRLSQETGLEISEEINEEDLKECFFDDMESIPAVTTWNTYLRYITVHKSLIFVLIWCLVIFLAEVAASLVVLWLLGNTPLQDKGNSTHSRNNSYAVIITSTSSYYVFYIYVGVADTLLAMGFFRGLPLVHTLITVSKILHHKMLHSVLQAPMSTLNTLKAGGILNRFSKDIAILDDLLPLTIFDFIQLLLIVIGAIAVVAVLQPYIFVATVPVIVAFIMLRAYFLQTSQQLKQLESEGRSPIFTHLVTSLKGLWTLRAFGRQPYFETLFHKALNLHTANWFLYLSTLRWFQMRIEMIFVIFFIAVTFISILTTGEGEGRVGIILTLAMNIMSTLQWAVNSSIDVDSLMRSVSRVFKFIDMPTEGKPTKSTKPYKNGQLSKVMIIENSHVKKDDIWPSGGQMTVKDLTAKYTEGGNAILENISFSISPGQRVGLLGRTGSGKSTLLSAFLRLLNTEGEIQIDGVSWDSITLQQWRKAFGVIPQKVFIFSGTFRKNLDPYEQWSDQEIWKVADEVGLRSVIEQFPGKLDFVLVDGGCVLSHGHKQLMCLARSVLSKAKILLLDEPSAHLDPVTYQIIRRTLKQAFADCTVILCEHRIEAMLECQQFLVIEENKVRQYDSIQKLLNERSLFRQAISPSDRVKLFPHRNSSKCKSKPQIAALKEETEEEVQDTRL

Row | SMILES | AI (%) additivity index [1] | further results
1 | CCOC(=O)c1cc2c(n1Cc1ccc(C)cc1)-c1[nH]c(=O)c(S(=O)(=O)c3ccccc3)cc1CC2 [PP007] | 169% | AI additivity index in the example of FIG. 1 (10 μM, with VX-809 1 μM, 24 h): 74%; F508del-CFTR activity (quenching rate) versus DMSO control (compound alone, 24 h treatment): significant increase in F508del-CFTR activity; F508del-CFTR activity (quenching rate) of combination with VX-809 (compound plus VX-809 1 μM, 24 h): greater than the sum of the single effects; screening outcome (QR above mean plus three SD of DMSO wells) (screen of about 200 heterocyclic molecules): active
2 | CCOC(=O)c1cc2c(n1Cc1cccc(C)c1)-c1[nH]c(=O)c(S(=O)(=O)c3ccccc3)cc1CC2 [PP016, Ethyl 1-(3-methylbenzyl)-8-oxo-7-(phenylsulfonyl)-4,5,8,9-tetrahydro-1H-pyrrolo[3,2-h]quinoline-2-carboxylate] | 42% | –
3 | CCOC(=O)c1ccc2n1CCc1cnc(NC3CCCC3)nc1-2 [QZQ14, Ethyl 2-(cyclopentylamino)-5,6-dihydropyrimido[5,4-g]indolizine-8-carboxylate] | – | AI (%) additivity index (Table 5, (QRTOT-QRVX)/QRVX): 18%
4 | Cc1ccc(Cn2c(C(=O)O)cc3c2-c2[nH]c(=O)c(S(=O)(=O)c4ccccc4)cc2CC3)cc1 [PP078, 7-(Benzenesulfonyl)-1-[(4-methylphenyl)methyl]-8-oxo-4,5,8,9-tetrahydro-1H-pyrrolo[3,2-h]quinoline-2-carboxylic acid] | 37% | –
5 | Cc1cccc(Cn2c(C(=O)O)c(Br)c3c2-c2[nH]c(=O)c(S(=O)(=O)c4ccccc4)cc2CC3)c1 [PP081, 7-(Benzenesulfonyl)-3-bromo-1-[(3-methylphenyl)methyl]-8-oxo-4,5,8,9-tetrahydro-1H-pyrrolo[3,2-h]quinoline-2-carboxylic acid] | 20% | –
6 | Cc1cccc(Cn2c(C(=O)NC(C)(C)C)c(Br)c3c2-c2[nH]c(=O)c(S(=O)(=O)c4ccccc4)cc2CC3)c1 [PP101, 7-(Benzenesulfonyl)-3-bromo-N-tert-butyl-1-[(3-methylphenyl)methyl]-8-oxo-4,5,8,9-tetrahydro-1H-pyrrolo[3,2-h]quinoline-2-carboxamide] | 249% | –
7 | CCOC(=O)c1cc2c(n1Cc1ccc(C)nc1)-c1[nH]c(=O)c(S(=O)(=O)c3ccccc3)cc1CC2 [PP066, Ethyl 7-(benzenesulfonyl)-1-[(6-methylpyridin-3-yl)methyl]-8-oxo-4,5,8,9-tetrahydro-1H-pyrrolo[3,2-h]quinoline-2-carboxylate] | 62% | –
8 | CCOC(=O)c1cc2c(n1Cc1ccccc1C)-c1[nH]c(=O)c(S(=O)(=O)c3ccccc3)cc1CC2 [PP015, Ethyl 1-(2-methylbenzyl)-8-oxo-7-(phenylsulfonyl)-4,5,8,9-tetrahydro-1H-pyrrolo[3,2-h]quinoline-2-carboxylate] | 124% | –
9 | CCOC(=O)c1c(Br)c2c(n1Cc1ccc(C)c(C)c1)-c1[nH]c(=O)c(S(=O)(=O)c3ccccc3)cc1CC2 [PP037, Ethyl 7-(benzenesulfonyl)-3-bromo-1-[(3,4-dimethylphenyl)methyl]-8-oxo-4,5,8,9-tetrahydro-1H-pyrrolo[3,2-h]quinoline-2-carboxylate] | 335% | structure-activity comparison of corrector potency/activity: increase in potency compared to PP008
10 | CC(C)OC(=O)c1c(Br)cc2n1CCc1cc(S(=O)(=O)c3ccccc3)c(=O)[nH]c1-2 [QZN10, Propan-2-yl 3-(benzenesulfonyl)-9-bromo-2-oxo-1,2,5,6-tetrahydropyrrolo[1,2-h][1,7]naphthyridine-8-carboxylate] | – | AI (%) additivity index (Table 4, (QRTOT − QRVX)/QRVX): 101%
11 | CC(C)OC(=O)c1cc2c(n1Cc1ccc(F)cc1)-c1[nH]c(=O)c(S(=O)(=O)c3ccccc3)cc1CC2 [PP107, Propan-2-yl 7-(benzenesulfonyl)-1-[(4-fluorophenyl)methyl]-8-oxo-4,5,8,9-tetrahydro-1H-pyrrolo[3,2-h]quinoline-2-carboxylate] | 335% | –
12 | CCOC(=O)c1c2c(nn1Cc1ccc(C)c(C)c1)-c1[nH]c(=O)c(S(=O)(=O)c3ccccc3)cc1CC2 [PZ8, Ethyl 7-(benzenesulfonyl)-2-[(3,4-dimethylphenyl)methyl]-8-oxo-4,5,8,9-tetrahydro-2H-pyrazolo[4,3-h]quinoline-3-carboxylate] | – | AI (%) additivity index (Table 6, (QRTOT-QRVX)/QRVX): 21%
13 | Cc1ccc(Cn2c(C(=O)O)c(Br)c3c2-c2[nH]c(=O)c(S(=O)(=O)c4ccccc4)cc2CC3)cc1 [PP079, 7-(Benzenesulfonyl)-3-bromo-1-[(4-methylphenyl)methyl]-8-oxo-4,5,8,9-tetrahydro-1H-pyrrolo[3,2-h]quinoline-2-carboxylic acid] | 38% | –
14 | CCOC(=O)c1c(Br)c2c(n1Cc1ccc(Cl)cc1)-c1[nH]c(=O)c(S(=O)(=O)c3ccccc3)cc1CC2 [PP029, Ethyl 3-bromo 1-(4-chlorobenzyl)-8-oxo-7-(phenylsulfonyl)-4,5,8,9-tetrahydro-1H-pyrrolo[3,2-h]quinoline-2-carboxylate] | 46% | –
15 | Cc1cccc(Cn2c(C(N)=O)cc3c2-c2[nH]c(=O)c(S(=O)(=O)c4ccccc4)cc2CC3)c1 [PP093, 7-(Benzenesulfonyl)-1-[(3-methylphenyl)methyl]-8-oxo-4,5,8,9-tetrahydro-1H-pyrrolo[3,2-h]quinoline-2-carboxamide] | 25% | –
16 | CCOC(=O)c1cc2c(n1Cc1ccc(C)cc1)-c1nc(NS(=O)(=O)c3ccccc3)ncc1CC2 [SVQ9, Ethyl 2-[(benzenesulfonyl)amino]-9-[(4-methylphenyl)methyl]-6,9-dihydro-5H-pyrrolo[3,2-h]quinazoline-8-carboxylate] | – | AI additivity index (Table 3, (QRTOT-QRVX)/QRVX): 98%
17 | CCOC(=O)c1c(Br)cc2n1CCc1cc(S(=O)(=O)c3ccccc3)c(=O)[nH]c1-2 [QZN2, Ethyl 3-(benzenesulfonyl)-9-bromo-2-oxo-1,2,5,6-tetrahydropyrrolo[1,2-h][1,7]naphthyridine-8-carboxylate] | – | AI (%) additivity index (Table 4, (QRTOT − QRVX)/QRVX): 19%
18 | Cc1cccc(Cn2c(C(=O)NC(C)C)cc3c2-c2[nH]c(=O)c(S(=O)(=O)c4ccccc4)cc2CC3)c1 [PP083, 7-(Benzenesulfonyl)-1-[(3-methylphenyl)methyl]-8-oxo-N-(propan-2-yl)-4,5,8,9-tetrahydro-1H-pyrrolo[3,2-h]quinoline-2-carboxamide] | 53% | –
19 | CCOC(=O)c1cc2c(n1Cc1ccc(Br)cc1)-c1[nH]c(=O)c(S(=O)(=O)c3ccccc3)cc1CC2 [PP060, Ethyl 7-(benzenesulfonyl)-1-[(4-bromophenyl)methyl]-8-oxo-4,5,8,9-tetrahydro-1H-pyrrolo[3,2-h]quinoline-2-carboxylate] | 148% | –
20 | CCOC(=O)c1c(Br)c2c(n1Cc1ccc(I)cc1)-c1[nH]c(=O)c(S(=O)(=O)c3ccccc3)cc1CC2 [PP063, Ethyl 7-(benzenesulfonyl)-3-bromo-1-[(4-iodophenyl)methyl]-8-oxo-4,5,8,9-tetrahydro-1H-pyrrolo[3,2-h]quinoline-2-carboxylate] | 146% | –
21 | CCOC(=O)c1c(Br)c2ccc3cc(S(=O)(=O)c4ccccc4)c(=O)[nH]c3c2n1Cc1ccc(C)cc1 [13 (PP057), Ethyl 7-(benzenesulfonyl)-3-bromo-1-[(4-methylphenyl)methyl]-8-oxo-8,9-dihydro-1H-pyrrolo[3,2-h]quinoline-2-carboxylate] | – | AI additivity index (Table 1a, (QRTOT − QRVX)/QRVX): 272%; structure-activity comparison of corrector potency/activity: Increased activity

Source: patent US12410164B2, “Heterocyclic compounds and medical use thereof” (FONDAZIONE TELETHON, priority 2018, dated 2025)
